Read-outs that look alike come from different tables or passages of the source.
Experiments:
[1] = system: PCNA; experiment: NMR 1H-15N BEST HSQC of 15N-p150L with PCNA; assay type: binding, human; conditions: 50 μM p150L, 400 μM PCNA monomer, 10 mM sodium phosphate pH 7.2, 10 mM NaCl, 293K
Description: NMR experiments were carried out on a 600 MHz Bruker Avance III spectrometer equipped with a 5 mm QCIP cryoprobe with Z gradients. All experiments were carried out at 293K. Two-dimensional ^1H-^15N BEST HSQC [60] experiments were carried out using the sequences downloaded from the NMRlib suite of pulse sequences. Selective shaped pulses were used to excite a ^1H sweep width of 4.5 ppm, centered at 8.75 ppm, with a recycle delay of 0.2 s. ^1H and ^15N sweep widths were set to 8417.509 Hz (14 ppm) and 1920.466 Hz (31.6 ppm) respectively, typically 240 t1 increments were acquired. NMR samples were prepared in 10 mM sodium phosphate buffer, pH 7.2, 10 mM NaCl, and 90% H2O/10% D2O. Uniformly ^15N labelled CAF-1 p150L and unlabeled PCNA were prepared in identical buffers and added together from stock samples. Final sample concentrations were at 50 μM for CAF-1 p150L and 400 μM PCNA monomer. NMR spectra were processed with NMRpipe, a multidimensional spectral system based on UNIX pipes.

[2] = system: PCNA; experiment: Intrinsic tryptophan fluorescence quenching of PCNA by p150L; assay type: binding, human; conditions: 5 µM PCNA monomer + 20 µM p150L, excitation 280 nm, 10 mM sodium phosphate pH 7.2, 10 mM NaCl, 0.1 mM TCEP, room temperature
Description: Fluorescence experiments were performed on an Agilent Cary Eclipse fluorimeter at room temperature. Buffer conditions were identical for all protein components (10 mM sodium phosphate, pH 7.2, 10 mM NaCl, 0.1 mM TCEP). Samples were excited at A280nm with a 5 nm bandwidth and the emission spectra between 295 nm and 420 nm were collected. Measurements were made for 5 μM PCNA monomer (1 tryptophan residue), 20 μM CAF-1 p150L (no tryptophan and tyrosine residues), and a mixture containing 5 μM PCNA monomer and 20 μM CAF-1 p150L. Both samples were extensively dialyzed against the same buffer and prepared from stock samples to ensure identical conditions.

[3] = system: DNA; experiment: Co-purification with nucleic acid (DNA binding); conditions: purification of p150L; high salt washes combined with benzonase required to remove nucleic acid
Excerpt: An unusually long α-helix (119 amino acids) is predicted to end abruptly in the PIP RFF residues. The CAF-1 p150 PIP is surrounded by a red rectangle. To address this surprising prediction, CAF-1 p150 fragments that contained the predicted long α-helix including the PIP were expressed in E. coli, purified, and their biochemical and biophysical properties were characterized. This fragment of human p150 (Figure 5, residues 342–474) was expressed as a His-tagged fusion protein, hereafter referred to as CAF-1 p150L. […] Further treatment with benzonase and three sequential 1 M NaCl washes were required to remove the contamination.
S2. Expression and purification of p150L in Escherichia coli
A DNA fragment encoding human p150 residues 342-475 was cloned into the pET28a vector (kanamycin resistant) in-frame with a C-terminal 6X-histidine tag. For p150L ex-pression, this plasmid was transformed into Escherichia coli BL21(DE3) RIL cells (Strata-gene). Single colonies were inoculated and grown overnight to saturation at 37°C in 2X YT medium containing 50 µg/ml kanamycin. The next day, cells were diluted and grown to mid-exponential phase (A600nm = 0.6 - 0.8) at 37°C and protein expression was induced at 20°C with 0.5 mM isopropyl-β-D-thiogalactopyranoside (IPTG) for 16 h. […]

[4] = system: PCNA; conditions: in vitro; ref [18]; cited from earlier work
Excerpt: CAF-1 is composed of three subunits, conserved from yeast to human. In humans, mice, and Xenopus, the three subunits of CAF-1 are p150 (CHAF1A), p60 (CHAF1B), and RbAp48 (RBBP4). p150 contains two regions that bind PCNA. The first is a motif located within the N-terminal domain of p150 that we previously referred to as the PCNA binding domain (PBD) (Figure 1A). […] I ... || Similarly, the CAF-1 PIP box sequence of Msh3, which is a part of the DNA mismatch repair machinery, is 19-[…]-41 and in accordance with the canonical sequence, the first PIP box residue corresponds to a glutamine, whereas in contrast, in the PIP box of CAF-1 this is replaced by a lysine at this position, thus making the binding mode of CAF-1 p150 non-canonical and unique in the case of human CAF-1 sequence 442-[…]-449 and mouse CAF-1 sequence 421-[…]-428. Previous research from our lab has also shown that substitution of the CAF-1 p150 lysine by a glutamine to ...

[5] = system: replication-coupled chromatin assembly; conditions: ref [18], cited from earlier work
Excerpt: CAF-1 is composed of three subunits, conserved from yeast to human. In humans, mice, and Xenopus, the three subunits of CAF-1 are p150 (CHAF1A), p60 (CHAF1B), and RbAp48 (RBBP4). p150 contains two regions that bind PCNA. The first is a motif located within the N-terminal domain of p150 that we previously referred to as the PCNA binding domain (PBD) (Figure 1A). […] In order to probe this further, we determined the preliminary model of the structure of CAF-1 p150 PIP bound to PCNA based on a molecular replacement solution that could not be refined further. We report here that the CAF-1 PIP binds to PCNA in an unprecedented manner.

With “CAF-1 p150L: fragment of human p150 (residues 342–474) expressed as a His-tagged fusion protein” the “NMR signal changes on mixing with PCNA” value [1] was “some of the well-resolved peaks corresponding to CAF-1 p150L disappeared or were significantly shifted”, the “NMR signal changes on mixing with PCNA” value ([1]; listed as p150L) was “most of the p150L spectrum disappears” and the “quenching of PCNA tryptophan fluorescence / binding” value [2] was “quenched a small portion of the tryptophan signal derived from PCNA”. The “quenching of PCNA tryptophan fluorescence / binding” value ([2]; listed as p150L) was “weak binding” and the “DNA / nucleic acid binding” value [3] was “co-purified with nucleic acid contamination”.

For KAEITRFF [PIP of p150], the “binding to PCNA” value [4] is listed as “shows weaker affinity for PCNA”, the “role or effect in chromatin assembly” value ([5]; listed as CAF-1 PIP) is listed as “preferentially inhibit nucleosome assembly over DNA synthesis” and the “role or effect in chromatin assembly” value [5] is listed as “essential for chromatin assembly”.

From paper PMC9570017, “Unorthodox PCNA Binding by Chromatin Assembly Factor 1” (International Journal of Molecular Sciences, 2022)
